The test deals with human neuroblastoma (SH-SY5Y). Kind of test: Apoptosis suppressing action caused by amyloid β in human neuroblastoma (Hoechst 33342 staining). The test is classed as cell-based. Here is the method: The proportion of apoptotic cells in human neuroblastoma (SH-SY5Y; obtained from ATCC) in the presence of an autophagy activator was measured by the following test method to evaluate the apoptosis suppressing action of the autophagy activator.
In the following examples and comparative examples, tests were performed by adding amyloid β, which is known to induce cell death called apoptosis of nerve cells due to a decrease in autophagy, to each medium.
SH-SY5Y cells were prepared at a seeding density of 50000 cells/cm^2 and cultured for 24 hours in D-MEM medium/Ham's F-12 medium (manufactured by Sigma-Aldrich) to which 10% fetal bovine serum (manufactured by MP Biomedicals) was added. […]
Thereafter, an aqueous solution of 10 μM Hoechst 33342 (manufactured by Sigma-Aldrich) was added to each SH-SY5Y cell from which the medium was removed, and the cells were allowed to stand at room temperature (25° C.) for 10 minutes. After removing the solution, each SH-SY5Y cell was washed with phosphate buffer (PBS, manufactured by Wako Pure Chemical Industries, Ltd.), and with a fluorescence microscope, the number of cells showing strong apoptosis-like Hoechst fluorescence due to chromatin aggregation (Hoechst (+) cells) was counted. […]

This is an account of results in US20230355646A1, “AUTOPHAGY ACTIVATOR” (Resonac Corporation, priority 2020, published 2023).

Each structure is given as a SMILES string.

For the compound `COc1ccc([C@@H]2CC(=O)c3c(O)cc(O[C@@H]4O[C@H](CO[C@@H]5O[C@@H](C)[C@H](O)[C@@H](O)[C@H]5O)[C@@H](O)[C@H](O)[C@H]4O)cc3O2)cc1O` [Comparative Example 2, hesperidin], the “proportion of apoptotic cells (in words)” value (SH-SY5Y cells with amyloid β, compared to DMSO and amyloid β of Comparative Example 7) was “decreased”. Further, for the setting “SH-SY5Y cells, 30 μM amyloid β present, 10^−2% (V/V) methyl hesperidin or hesperidin, additional ingredient where in the example, 48 hours, relative value, Reference Example 4 = 1.00”, the “Proportion of apoptotic cells” value was 3.76.
